Data: BindingDB's records for patent US10428066 (PROXIMAGEN, LLC, 2019)

Target: T1, Membrane primary amine oxidase (Homo sapiens, UniProt Q16853)
T1 sequence (Q16853 whole entry): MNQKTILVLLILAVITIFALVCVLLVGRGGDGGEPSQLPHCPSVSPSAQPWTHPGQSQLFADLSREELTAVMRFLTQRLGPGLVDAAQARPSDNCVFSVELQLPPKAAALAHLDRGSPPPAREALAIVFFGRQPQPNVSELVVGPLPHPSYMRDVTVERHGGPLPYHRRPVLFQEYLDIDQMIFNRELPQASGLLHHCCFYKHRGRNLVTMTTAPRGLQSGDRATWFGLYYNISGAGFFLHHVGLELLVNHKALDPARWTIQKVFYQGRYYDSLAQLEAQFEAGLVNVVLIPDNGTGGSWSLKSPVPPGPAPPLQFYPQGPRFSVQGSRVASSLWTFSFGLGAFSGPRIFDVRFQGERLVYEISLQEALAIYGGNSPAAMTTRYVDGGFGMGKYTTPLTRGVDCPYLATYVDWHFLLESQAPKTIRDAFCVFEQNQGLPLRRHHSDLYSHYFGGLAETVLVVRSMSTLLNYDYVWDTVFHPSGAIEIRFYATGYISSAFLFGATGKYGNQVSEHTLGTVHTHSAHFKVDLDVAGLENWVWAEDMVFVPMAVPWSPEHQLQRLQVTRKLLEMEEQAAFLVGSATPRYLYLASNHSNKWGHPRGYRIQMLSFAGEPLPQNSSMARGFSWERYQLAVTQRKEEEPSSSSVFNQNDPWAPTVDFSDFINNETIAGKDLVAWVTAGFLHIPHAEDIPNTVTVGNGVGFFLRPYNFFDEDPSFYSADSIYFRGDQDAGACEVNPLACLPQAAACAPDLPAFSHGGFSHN
Experiment: Biological Assay
Method: All primary assays were performed at RT. with purified recombinantly expressed human SSAO. […] In addition, secondary- and selectivity assays were performed using SSAO prepared from various tissues or purified rat recombinant SSAO. The enzyme activity was assayed with benzylamine as substrate by measuring either benzaldehyde production, using 14C-labeled substrate, or by utilizing the production of hydrogen peroxide in a horseradish peroxidase (HRP) coupled reaction. Briefly, test compounds were dissolved in dimethyl sulfoxide (DMSO) to a concentration of 10 mM. Dose-response measurements were assayed by either creating 1:10 serial dilutions in DMSO to produce a 7 point curve or by making 1:3 serial dilutions in DMSO to produce 11 point curves.

IC50: in the range around 125 nM
Structure (SMILES): Cc1cc(N)ncc1-c1cc2ccncc2n1-c1ccc(Cl)cc1 [5-[1-(4-Chlorophenyl)-1H-pyrrolo[2,3-c]pyridin-2-yl]-4-methylpyridin-2-amine; bis(trifluoroacetic acid)]
